Results as given in patent publication US12447156B2, “Treating progressive familial intrahepatic cholestasis (PFIC) with IBAT inhibitors” (ALBIREO AB, priority 2020, dated 2025).

System: patients with PFIC with prior PEBD surgery
Assay: PEDFIC 1/2 post hoc subgroup: patients with prior partial external biliary diversion (PEBD)
Format: in vivo, human
Set-up: key: Y: sBAs ≤70 μmol/L or reduced ≥70% at last assessment; N, no
Description: One surgical treatment option for patients with PFIC is partial external biliary diversion (PEBD), which can be used to reduce bile acid levels in patients with medically refractory pruritus. However, PEBD is not successful in all patients. […] This post hoc subgroup analysis evaluated the safety and efficacy of odevixibat in patients enrolled in the PEDFIC studies who had PEBD surgery prior to study entry.
In the double-blind PEDFIC 1 study, children with PFIC1 or PFIC2 were randomized to placebo or 40 or 120 μg/kg/day odevixibat for 24 weeks. In PEDFIC 2, an ongoing, open-label extension study, patients from PEDFIC 1 or newly enrolled patients with any PFIC subtype receive odevixibat 120 μg/kg/day. In both PEDFIC 1 and PEDFIC 2, eligible patients had elevated sBAs and significant pruritus at screening. Changes over time in sBA levels and observer-reported pruritus (range: 0-4; higher scores indicate worse symptoms), sleep parameters, and quality of life (QoL; assessed with the Pediatric Quality of Life Inventory [PedsQL]) were evaluated in the subgroup of patients from PEDFIC 1 and/or PEDFIC 2 with a medical history of PEBD surgery performed prior to study enrollment.

Measured: sBA Responder?

CCCCC1(CCCC)CN(c2ccccc2)c2cc(SC)c(OCC(=O)N[C@@H](C(=O)N[C@@H](CC)C(=O)O)c3ccc(O)cc3)cc2S(=O)(=O)N1 [Odevixibat, 1,1-dioxo-3,3-dibutyl-5-phenyl-7-methylthio-8-(N-{(R)-α-[N-((S)-1-carboxypropyl)carbamoyl]-4-hydroxybenzyl}carbamoylmethoxy)-2,3,4,5-tetrahydro-1,2,5-benzothiadiazepine]
N: Patient 1 (prior PEBD, PFIC2; PEDFIC 1 placebo, PEDFIC 2 120 μg/kg/d; 42 weeks exposure) | Patient 2 (prior PEBD, PFIC1; PEDFIC 1 placebo, PEDFIC 2 120 μg/kg/d; 35 weeks exposure) | Patient 3 (prior PEBD, PFIC1; PEDFIC 1 40 μg/kg/d, PEDFIC 2 120 μg/kg/d; 44 weeks exposure) | Patient 4 (prior PEBD, PFIC1; PEDFIC 1 40 μg/kg/d, PEDFIC 2 120 μg/kg/d; 55 weeks exposure) | Patient 5 (prior PEBD, PFIC2; 120 μg/kg/d in PEDFIC 1 and 2; 53 weeks exposure) | Patient 6 (prior PEBD, PFIC2; 120 μg/kg/d in PEDFIC 1 and 2; 44 weeks exposure) | Patient 7 (prior PEBD, PFIC2; 120 μg/kg/d in PEDFIC 1 and 2; 54 weeks exposure, discontinued) | Patient 8 (prior PEBD, PFIC1; 120 μg/kg/d in PEDFIC 1 and 2; 47 weeks exposure) | Patient 9 (prior PEBD, PFIC1; PEDFIC 2 only, 120 μg/kg/d; 25 weeks exposure)
